Assay results reported in ChEMBL document CHEMBL2074218, “Effect of P-glycoprotein modulator, cyclosporin A, on the gastrointestinal excretion of irinotecan and its metabolite SN-38 in rats” (Pharm Res, 2003).

Molecular target: ATP-dependent translocase ABCB1 (Mus musculus, UniProt P21447)
Test: TP_TRANSPORTER: transepithelial transport (basal to apical) in Mdr1a-expressing LLC-PK1 cells
Format: functional, cell-based
Settings: pig

Sequence of ATP-dependent translocase ABCB1 (P21447 whole entry): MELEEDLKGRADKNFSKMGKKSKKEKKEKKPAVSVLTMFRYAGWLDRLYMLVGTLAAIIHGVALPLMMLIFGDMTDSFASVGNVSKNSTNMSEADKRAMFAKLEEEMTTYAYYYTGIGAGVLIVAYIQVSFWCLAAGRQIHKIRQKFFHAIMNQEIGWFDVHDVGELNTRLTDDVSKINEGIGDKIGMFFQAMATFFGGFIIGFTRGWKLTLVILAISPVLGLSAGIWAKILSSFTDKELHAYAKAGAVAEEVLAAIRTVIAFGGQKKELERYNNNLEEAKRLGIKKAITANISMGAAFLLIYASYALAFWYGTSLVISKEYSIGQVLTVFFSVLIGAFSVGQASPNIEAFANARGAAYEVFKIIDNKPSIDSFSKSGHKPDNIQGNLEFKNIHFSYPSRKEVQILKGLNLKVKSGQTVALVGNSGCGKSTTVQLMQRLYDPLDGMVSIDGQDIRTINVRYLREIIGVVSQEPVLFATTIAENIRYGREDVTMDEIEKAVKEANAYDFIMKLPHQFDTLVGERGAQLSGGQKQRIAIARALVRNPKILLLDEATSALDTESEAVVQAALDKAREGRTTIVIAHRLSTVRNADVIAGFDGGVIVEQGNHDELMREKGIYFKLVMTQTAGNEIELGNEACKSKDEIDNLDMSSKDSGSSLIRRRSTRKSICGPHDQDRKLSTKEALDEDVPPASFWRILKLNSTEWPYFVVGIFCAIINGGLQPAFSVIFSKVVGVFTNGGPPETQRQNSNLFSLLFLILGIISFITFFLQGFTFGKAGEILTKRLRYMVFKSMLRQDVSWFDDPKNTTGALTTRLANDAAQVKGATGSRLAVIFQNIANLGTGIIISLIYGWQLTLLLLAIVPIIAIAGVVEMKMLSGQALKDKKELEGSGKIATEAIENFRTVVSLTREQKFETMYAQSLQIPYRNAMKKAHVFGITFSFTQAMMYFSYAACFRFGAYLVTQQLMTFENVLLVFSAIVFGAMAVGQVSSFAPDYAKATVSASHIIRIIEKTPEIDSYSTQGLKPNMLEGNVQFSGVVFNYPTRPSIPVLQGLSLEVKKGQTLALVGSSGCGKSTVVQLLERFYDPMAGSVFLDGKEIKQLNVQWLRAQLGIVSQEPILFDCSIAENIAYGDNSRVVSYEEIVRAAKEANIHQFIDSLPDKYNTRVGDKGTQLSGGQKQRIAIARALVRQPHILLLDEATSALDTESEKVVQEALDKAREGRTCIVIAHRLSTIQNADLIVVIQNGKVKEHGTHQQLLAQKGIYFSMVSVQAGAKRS

CCc1c2c(nc3ccc(OC[C@@H]4O[C@H](C(=O)O)[C@@H](O)[C@H](O)[C@H]4O)cc13)-c1cc3c(c(=O)n1C2)COC(=O)[C@]3(O)CC
Activity: substrate [+]

CCc1c2c(nc3ccc(O)cc13)-c1cc([C@@](O)(CC)C(=O)O)c(CO)c(=O)n1C2
Activity: substrate [+]

CCc1c2c(nc3ccc(OC(=O)N4CCC(N5CCCCC5)CC4)cc13)-c1cc([C@@](O)(CC)C(=O)O)c(CO)c(=O)n1C2
Activity: substrate [+]

CCc1c2c(nc3ccc(OC(=O)N4CCC(N5CCCCC5)CC4)cc13)-c1cc3c(c(=O)n1C2)COC(=O)[C@]3(O)CC [IRINOTECAN]
Activity: substrate [+]
